This experiment concerns SARS-CoV-2. Briefly: Antiviral activity against replicon RNA harboring SARS-CoV-2 infected in human Huh-7 cells assessed as inhibition of viral replication. The class given is functional, organism-based. The note with it: Severe acute respiratory syndrome coronavirus 2, Huh-7. Background: In antiviral work, replicon cells carry a viral genome segment that copies itself.

The text below walks through data of ChEMBL document CHEMBL6092138, “Discovery of the potent covalent inhibitor with an acrylate warhead for SARS-CoV-2 3CL protease” (Bioorg Med Chem Lett, 2024).

As usually defined, the EC50 is the concentration giving half of the maximal effect. As for `COC(=O)/C=C/[C@H](C[C@@H]1CCNC1=O)NC(=O)[C@@H]1[C@@H]2[C@H](CN1C(=O)[C@@H](NC(=O)C(F)(F)F)C(C)(C)C)C2(C)C`, the concentration giving a half-maximal response (EC50) amounted to 45 nM. As for `CC(C)(C)[C@H](NC(=O)C(F)(F)F)C(=O)N1C[C@H]2[C@@H]([C@H]1C(=O)N[C@H](/C=C/C(N)=O)C[C@@H]1CCNC1=O)C2(C)C`, the figure is more than 5000 nM; as for `CC(C)(C)[C@H](NC(=O)C(F)(F)F)C(=O)N1C[C@H]2[C@@H]([C@H]1C(=O)N[C@H](C#N)C[C@@H]1CCNC1=O)C2(C)C` [NIRMATRELVIR], 23 nM.
